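These data come from cells grown in 96-well plates and exposed to compound for 48 hours at five concentrations. At the TGI there is no net growth.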
Experiments:
Assay in all cases: NCI-60 cell line screen, 48 h
SN12C renal = test system: SN12C renal
SK-MEL-2 melanoma = test system: SK-MEL-2 melanoma
HT29 colon = test system: HT29 colon
KM12 colon = test system: KM12 colon
SF-539 CNS = test system: SF-539 CNS
SK-MEL-5 melanoma = test system: SK-MEL-5 melanoma
OVCAR-3 ovarian = test system: OVCAR-3 ovarian
COLO 205 colon = test system: COLO 205 colon
MOLT-4 leukemia = test system: MOLT-4 leukemia
HCC-2998 colon = test system: HCC-2998 colon
NCI/ADR-RES ovarian = test system: NCI/ADR-RES ovarian

Structure (SMILES)	TGI (SN12C renal)	TGI (SK-MEL-2 melanoma)	TGI (HT29 colon)	TGI (KM12 colon)	TGI (SF-539 CNS)	TGI (SK-MEL-5 melanoma)	TGI (OVCAR-3 ovarian)	TGI (COLO 205 colon)	TGI (MOLT-4 leukemia)	TGI (HCC-2998 colon)	TGI (NCI/ADR-RES ovarian)
COC(=O)c1cc(NC(=O)Cn2c3ccccc3c3ccccc32)cn1C	> 100 µM	> 100 µM	> 100 µM	> 100 µM	63.1 µM	> 100 µM	> 100 µM	> 100 µM	> 100 µM	> 100 µM	> 100 µM
O=c1oc2c(Cl)cc(Cl)cc2cc1-c1cn2c(n1)sc1ccccc12	> 100 µM	> 100 µM	> 100 µM	> 100 µM	> 100 µM	> 100 µM	> 100 µM	> 100 µM	52 µM	95 µM	> 100 µM
Cc1ccnc2[nH]c(-c3ccc(Cl)cc3)cc(=O)c12	> 100 µM	> 100 µM	> 100 µM	> 100 µM	> 100 µM	> 100 µM	99.1 µM	> 21.9 µM	> 100 µM	> 100 µM	> 100 µM
CC(C)(C)c1ccc(OCCOc2ccc(C(C)(C)C)cc2NC=O)c(NC=O)c1	30.8 µM	36.6 µM	7.32 µM	16.2 µM	21.6 µM	15.3 µM	36.5 µM	4.33 µM	19.1 µM	23.5 µM	37.7 µM
C=C1C(O)C2OC(=O)C(=C)C2C(OC(=O)/C(C)=C/C)CC2(C)OC2C2OC12 (stereo unspecified)	14.8 µM	38.4 µM	33.7 µM	11.6 µM	> 100 µM	> 100 µM	26.2 µM	31.4 µM	31.2 µM	21.6 µM	> 100 µM
Cc1nc(-n2nc(-c3ccccc3)cc2-c2ccccc2)sc1C(/C=C\c1ccc([N+](=O)[O-])cc1)=N/NC(=S)NN	> 31.6 µM	98.5 µM	> 72 µM	> 100 µM	> 61.3 µM	> 53.4 µM	> 70.7 µM	> 31.6 µM	> 100 µM	40.3 µM	85.3 µM
CN1CN(c2ccccc2)C2(CCN(C(=O)OC(C)(C)C)CC2)C1=O	> 100 µM	> 100 µM	> 100 µM	> 100 µM	> 100 µM	> 100 µM	> 100 µM	> 100 µM	> 100 µM	> 100 µM	> 100 µM
COc1cc(/C=[N+](\[O-])c2ccccc2Cl)ccc1OC(=S)S	> 100 µM	> 100 µM	> 100 µM	41.8 µM	> 100 µM	38.2 µM	> 100 µM	51 µM	> 100 µM	> 100 µM	76.4 µM
CN1C(=O)c2c(c3c4ccccc4n(C)c3c3c2c2ccccc2n3C)C1=O	> 100 µM	> 100 µM	> 100 µM	> 100 µM	> 100 µM	> 100 µM	> 100 µM	> 100 µM	> 100 µM	> 100 µM	> 100 µM
C[C@]12CC[C@@H]3c4cc(C=O)c(OCc5ccccc5)cc4CC[C@H]3[C@@H]1CCC2OCc1ccccc1 (stereo partly specified)	> 100 µM	> 100 µM	> 100 µM	> 100 µM	> 100 µM	> 100 µM	> 100 µM	> 100 µM	> 100 µM	> 100 µM	> 100 µM
COc1ccc(/C=C2\CCC(C)(CN(C)C)C2=O)cc1Br (stereo unspecified)	31.8 µM	36.9 µM	49.6 µM	28.3 µM	43.5 µM	28.3 µM	35.2 µM	34.4 µM	58 µM	35.8 µM	43.2 µM
O=S1(=O)OCCOS(=O)(=O)C1C1c2ccccc2-c2ccccc21	> 100 µM	> 100 µM	> 100 µM	> 100 µM	> 100 µM	> 100 µM	> 100 µM	> 100 µM	48.2 µM	> 100 µM	85.1 µM
CC(NC(=O)C(NC(=O)C(NC(=O)C(F)(F)F)C(C)C)C(C)C)C(=O)Oc1c(Cl)c(Cl)c(Cl)c(Cl)c1Cl (stereo unspecified)	> 100 µM	> 100 µM	> 100 µM	> 100 µM	> 100 µM	> 100 µM	> 100 µM	> 100 µM	> 100 µM	> 100 µM	> 100 µM
CC(=O)[C@H]1CC[C@@H]2[C@]1(C)CC=C1[C@]23C=C[C@]2(C[C@@H](O)CC[C@]12C)C(C(=O)O)C3C(=O)O (stereo partly specified)	> 100 µM	> 100 µM	> 100 µM	> 100 µM	> 100 µM	> 100 µM	> 100 µM	> 100 µM	> 100 µM	> 100 µM	> 100 µM
O=C(O)Cn1cnc2c(=O)[nH]c(Nc3ccccc3)nc21	> 100 µM	> 100 µM	> 100 µM	> 100 µM	> 100 µM	> 100 µM	> 100 µM	> 100 µM	> 100 µM	> 100 µM	> 100 µM
CCOP(=O)(OCC)C(Cc1cn(S(=O)(=O)c2ccc(C)cc2)cn1)C(=O)O (stereo unspecified)	> 100 µM	> 100 µM	> 100 µM	> 100 µM	> 100 µM	> 100 µM	> 100 µM	> 100 µM	> 100 µM	> 100 µM	> 100 µM

Source: PubChem BioAssay (NCI)
